Results as given in patent publication US9771379B2, “N-(2-(2-amino-6-substituted-4,4a,5,6-tetrahydropyrano[3,4-d][1,3]OXAZIN-8a(8H)-yl)-thiazol-4-yl) amides” (Pfizer Inc., priority 2015, dated 2017).

Molecular target: full length human BACE1 (Homo sapiens (Human), UniProt P56817)
Assay: BACE1 Scintillation Proximity Binding Assay (SPA)
Settings: radioligand displacement, HEK cell membranes, pH 6.0
Description: BACE1 Scintillation Proximity Binding Assay (SPA): The BACE1 binding assay measured beta-site amyloid precursor protein-cleaving enzyme (BACE) binding as a decrease in the counts of radioligand bound in a scintillation proximity assay (SPA). […] Full length human BACE1 over-expressed in HEK cells was prepared by Pfizer scientists. Frozen stock cell paste was reacted in 50 mM sodium acetate buffer (pH=6.0) containing 3H-(4aR,6R,8aS)-8a-(2,4-difluorophenyl)-6-(1-methyl-1H-pyrazol-4-yl)-4,4a,5,6,8,8a-hexahydropyrano[3,4-d][1,3]thiazin-2-amine ligand, SPA bead and 60 μM to 600 pM of test compound in an assay volume of 27 uL. The compound plate also contained positive (BACE inhibitor) and negative (DMSO) control wells. The binding was carried out at room temperature for 30 minutes and then the plates were read on a TriLux Microbeta reader to determine the number of counts bound. The raw data was converted to percent effect compared to positive and negative control wells and the compound concentrations and % effect values for tested compounds were plotted to determine the 50% effect (1050) with a four-parameter logistic dose response equation.

Sequence of full length human BACE1 (P56817 46-501): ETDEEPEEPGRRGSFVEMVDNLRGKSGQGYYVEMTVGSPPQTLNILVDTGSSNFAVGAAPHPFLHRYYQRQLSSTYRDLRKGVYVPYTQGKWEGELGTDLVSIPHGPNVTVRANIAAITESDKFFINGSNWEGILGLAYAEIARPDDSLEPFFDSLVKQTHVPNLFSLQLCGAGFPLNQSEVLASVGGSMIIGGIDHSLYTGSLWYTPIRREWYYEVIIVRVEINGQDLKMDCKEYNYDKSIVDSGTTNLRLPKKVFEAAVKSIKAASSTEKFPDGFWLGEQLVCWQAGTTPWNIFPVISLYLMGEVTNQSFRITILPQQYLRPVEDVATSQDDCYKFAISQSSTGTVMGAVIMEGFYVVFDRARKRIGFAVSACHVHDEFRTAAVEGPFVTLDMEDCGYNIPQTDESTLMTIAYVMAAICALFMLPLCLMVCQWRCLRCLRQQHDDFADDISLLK

Structure (SMILES) | IC50 [nM]
COc1cnc(C(=O)Nc2csc([C@]34CO[C@@H](C(F)(F)F)C[C@H]3COC(N)=N4)n2)c(C)n1 [Example 23, N-{2-[(4aR,6R,8aR)-2-amino-6-(trifluoromethyl)-4,4a,5,6-tetrahydropyrano [3,4-d][1,3]oxazin-8a(8H)-yl]-1,3-thiazol-4-yl}-5-methoxy-3-methylpyrazine-2-carboxamide] | 162
Cc1nc(OC(F)F)cnc1C(=O)Nc1csc([C@]23CO[C@@H](C(F)(F)F)C[C@H]2COC(N)=N3)n1 [Example 22, N-{2-[(4aR,6R,8aR)-2-amino-6-(trifluoromethyl)-4,4a,5,6-tetrahydropyrano [3,4-d][1,3]oxazin-8a(8H)-yl]-1,3-thiazol-4-yl}-5-(difluoromethoxy)-3-methyl pyrazine-2-carboxamide] | 13
NC1=N[C@@]2(c3nc(NC(=O)c4cnc(OC(F)F)cn4)cs3)CO[C@@H](C(F)(F)F)C[C@H]2CO1 [Example 20, N-{2-[(4aR,6R,8aR)-2-amino-6-(trifluoromethyl)-4,4a,5,6-tetrahydropyrano [3,4-d][1,3]oxazin-8a(8H)-yl]-1,3-thiazol-4-yl}-5-(difluoromethoxy)pyrazine-2-carboxamide] | 124
